Reference: paper PMC8421423, “Cellular model system to dissect the isoform-selectivity of Akt inhibitors” (Nature Communications, 2021)
“And” between values parts separate entries of the source, which are not always exact repeats. Identical values can stand only once. Like-named read-outs stand apart in the source and are kept apart here.

Legend:
[1] = system: parental Ba/F3 cells; assay: CellTiter-Glo cell viability assay; assay type: cell-based, murine; settings: for cell viability: CTG, parental
[2] = system: Ba/F3^myr-Akt1 cells; assay: CellTiter-Glo cell viability assay; settings: for Log ratio EC50 [Akt] / EC50 [Akt], Akt1 / Akt2: cell viability assay Ba/F3 myr-Akt cells, log units; for viability at 0.0001 µM: read-out: cell viability, CTG, myr-Akt1, 0.1 nM, single replicates; for viability at 5 µM: read-out: cell viability, CTG, myr-Akt1, 5000 nM, single replicates; for cell viability: CTG
[3] = system: Ba/F3^myr-Akt2 cells; assay: CellTiter-Glo cell viability assay
[4] = system: Ba/F3^myr-Akt3 cells; assay: CellTiter-Glo cell viability assay; settings: for Log ratio EC50 [Akt] / EC50 [Akt], Akt3 / Akt2: cell viability assay Ba/F3 myr-Akt cells, log units; for cell viability: CTG
Protocol: On day 0, cells were plated into white 384-well cell culture plates (Greiner Bio-One) using a Multidrop reagent dispenser (Thermo Fisher Scientific) at cell numbers that ensure linear and optimal luminescent signal intensity (Ba/F3myr-Akt1: 600 cells/well, Ba/F3myr-Akt2: 800 cells/well, Ba/F3myr-Akt3: 800 cells/well). […] Cell viability was analyzed on day 4 using the CellTiter-Glo Assay (Promega) as per the manufacturer’s instructions. […] All experimental points were measured in duplicates for each plate and were replicated in at least three plates.

[5] = molecular target: Akt1 (Homo sapiens, UniProt P31749); assay: STK HTRF KinEASE activity-based assay (IC50); settings: for Log ratio IC50 [Akt] / IC50 [Akt], Akt1 / Akt2: biochemical activity based assay, log units
[6] = molecular target: T1, Akt2 (Homo sapiens, UniProt P31751); assay: STK HTRF KinEASE activity-based assay (IC50)
Protocol: (§1) The biochemical half maximal inhibitory concentrations (IC50) were determined with the STK HTRF KinEASE assay (Cisbio) according to the manufactor’s instructions. Briefly: 5 µL Kinase solution and 2.5 µL inhibitor solution (8% DMSO in HTRF buffer) were incubated for 1 h before the reaction was started by addition of 2.5 µL starting solution containing ATP and substrate peptide. […] After reaction completion (Akt1: 60 min, Akt2: 20 min, Akt3: 15 min), 10 µL of stop solution were added. […] The quotient of both intensities were recorded at eight different inhibitor concentrations and data fit to a Hill 4-parameter equation with Quattro software suite (Quattro Research GmbH, Martinsried, Germany). Each reaction was performed in duplicates and at least three independent determinations of each IC50 were made.

[7] = molecular target: T2, Akt3 (Homo sapiens, UniProt Q9Y243); assay: STK HTRF KinEASE activity-based assay (IC50)
Protocol: as §1

[8] = molecular target: T1, Akt2; assay: PhosphoSens continuous fluorometric kinetic enzyme assay
Protocol: (§2) By addition of either 8 nM Akt1, 2 nM Akt2, or 5 nM Akt3 (final concentrations) the reactions were initiated. […] Afterwards the kobs-values were plotted versus the inhibitor concentrations [I] and then fit to the following hyperbolic Eq.

[9] = molecular target: T2, Akt3; assay: as above
Protocol: as §2

[10] = CellTiter-Glo cell viability assay; assay type: cell-based, murine; settings: mouse
[11] = system: pAkt^S473 and downstream targets in Ba/F3 myr-Akt1; settings: Ba/F3 myr-Akt1, 4-h treatment
[12] = system: pAkt^S473 and downstream targets in Ba/F3 myr-Akt3; assay: Western blot analysis, Ba/F3 myr-Akt3 cells; assay type: cell-based, murine; settings: Ba/F3 myr-Akt3, 4-h treatment
Protocol: Cells were seeded into six-well tissue culture plates (Sarstedt) (BaF3 myr-Akt1/2/3: 10^6 cells/well, PANC1: 250.000 cells/well). After 24 h incubation, cells were treated with various concentrations of inhibitors or DMSO and incubated for additional 4.5 h before cells were washed twice with ice-cold PBS. Cell lysis was initiated by addition of 100 μL RIPA buffer (Cell Signaling Technology) per well supplemented with phosphatase and protease inhibitor cocktails (Sigma) followed by incubation on ice for 20 min. Cells were then harvested by scraping (PANC1) or centrifugation (BaF3). Whole cell lysates were cleared by centrifugation at 14,000×g/4 °C for 10 min and transferred into fresh, pre-cooled microcentrifuge tubes. Protein concentrations were determined using the Pierce BCA protein assay (Thermo) as per manufacturer’s instructions. Equal amounts of protein were separated by SDS-PAGE and transferred to Immobilon-FL PVDF membranes (Merck Millipore) using Pierce™ 1-step transfer buffer (Thermo) and the Pierce™ Power Blotter (Thermo). Membranes were washed for 5 min with ddH2O, blocked with Intercept®Blocking Buffer TBS (Li-Cor) for 1 h at room temperature, and then incubated with primary antibodies diluted in Intercept®Blocking Buffer TBS overnight at 4 °C with gentle agitation. […]

[13] = Mus musculus, BaF3, parental cells, mean of replicates, read-out: CTG BaF3, Mean
[14] = Mus musculus, BaF3, parental cells, single replicates, read-out: CTG BaF3, individual determinations
[15] = parental cells, single replicates, read-out: CTG BaF3, individual determinations
[16] = Mus musculus, read-out: CTG BaF3myr-Akt1, Mean, mean of replicates
[17] = Mus musculus, read-out: CTG BaF3myr-Akt1, individual determinations, single replicates
[18] = read-out: CTG BaF3myr-Akt1, individual determinations, single replicates
[19] = Mus musculus, read-out: CTG BaF3myr-Akt2, Mean, mean of replicates
[20] = read-out: CTG BaF3myr-Akt2, individual determinations, single replicates
[21] = Mus musculus, read-out: CTG BaF3myr-Akt3, individual determinations, single replicates
[22] = read-out: CTG BaF3myr-Akt3, individual determinations, single replicates

T2 sequence (Q9Y243 whole entry): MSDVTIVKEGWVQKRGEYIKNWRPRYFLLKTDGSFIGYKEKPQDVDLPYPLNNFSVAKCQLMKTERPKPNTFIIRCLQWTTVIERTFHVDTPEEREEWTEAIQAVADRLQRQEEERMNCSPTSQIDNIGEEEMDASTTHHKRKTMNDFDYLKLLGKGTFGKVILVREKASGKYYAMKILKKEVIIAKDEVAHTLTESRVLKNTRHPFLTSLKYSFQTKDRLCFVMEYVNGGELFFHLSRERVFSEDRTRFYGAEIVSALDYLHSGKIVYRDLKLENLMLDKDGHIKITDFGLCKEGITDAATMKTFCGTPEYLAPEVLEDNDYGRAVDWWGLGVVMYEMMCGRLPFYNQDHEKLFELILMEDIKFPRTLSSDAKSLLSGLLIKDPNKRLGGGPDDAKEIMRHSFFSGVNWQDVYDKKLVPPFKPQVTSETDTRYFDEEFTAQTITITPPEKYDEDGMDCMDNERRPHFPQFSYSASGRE
T1 sequence (P31751 whole entry): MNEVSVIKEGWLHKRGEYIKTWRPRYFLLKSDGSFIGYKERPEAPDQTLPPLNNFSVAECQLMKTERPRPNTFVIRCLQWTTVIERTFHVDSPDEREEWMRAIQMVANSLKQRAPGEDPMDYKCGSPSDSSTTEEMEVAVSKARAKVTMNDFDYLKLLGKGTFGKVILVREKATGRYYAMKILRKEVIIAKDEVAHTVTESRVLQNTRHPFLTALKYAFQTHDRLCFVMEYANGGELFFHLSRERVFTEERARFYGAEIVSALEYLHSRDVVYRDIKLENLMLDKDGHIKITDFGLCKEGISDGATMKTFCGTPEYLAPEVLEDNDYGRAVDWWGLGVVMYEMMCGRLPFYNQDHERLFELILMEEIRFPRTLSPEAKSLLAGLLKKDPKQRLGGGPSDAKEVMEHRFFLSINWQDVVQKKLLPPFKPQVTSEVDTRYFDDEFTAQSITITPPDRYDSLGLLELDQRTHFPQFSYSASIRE
Chain of Akt1 (P31749 whole entry): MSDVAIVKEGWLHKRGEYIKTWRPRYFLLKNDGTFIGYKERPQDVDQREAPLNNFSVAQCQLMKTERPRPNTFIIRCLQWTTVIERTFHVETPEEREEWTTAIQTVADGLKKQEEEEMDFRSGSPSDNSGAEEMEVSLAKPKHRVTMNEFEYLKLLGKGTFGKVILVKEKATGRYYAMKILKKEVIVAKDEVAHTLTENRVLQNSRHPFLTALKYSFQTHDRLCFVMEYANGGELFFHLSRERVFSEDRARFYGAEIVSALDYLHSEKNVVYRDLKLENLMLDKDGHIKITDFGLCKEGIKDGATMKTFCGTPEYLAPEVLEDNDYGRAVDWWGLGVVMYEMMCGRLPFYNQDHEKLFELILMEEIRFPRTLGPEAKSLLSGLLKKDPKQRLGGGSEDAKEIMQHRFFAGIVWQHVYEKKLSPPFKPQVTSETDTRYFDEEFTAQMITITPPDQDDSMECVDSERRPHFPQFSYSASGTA

For `C=CC(=O)Nc1ccc2[nH]c(=O)n(C3CCN(Cc4ccc(-c5ncc(Cc6cccnc6)cc5-c5ccccc5)cc4)CC3)c2c1` [compound 21], the EC50 [1, 13] was 14.7 µM, the EC50 [1, 14] was 18.2 µM and the EC50 [1, 15] was 11.7 µM and 14.3 µM. The EC50 [2, 16] was 19.7 µM, the EC50 [2, 17] was 21.2 µM and the “Log ratio EC50 [Akt] / EC50 [Akt], Akt1 / Akt2” value [2] was 0.95. The EC50 [2, 18] was 13.3 µM and 24.6 µM, the EC50 [3, 19] was 2.23 µM and the EC50 ([3]; Mus musculus, read-out: CTG BaF3myr-Akt2, individual determinations, single replicates) was 2.02 µM. For the same compound, the EC50 [3, 20] was 2.49 µM and 2.19 µM, the EC50 ([4]; Mus musculus, read-out: CTG BaF3myr-Akt3, Mean, mean of replicates) was 6.52 µM and the EC50 [4, 21] was 5.55 µM. For the same compound, the “Log ratio EC50 [Akt] / EC50 [Akt], Akt3 / Akt2” value [4] was -0.46, the EC50 [4, 22] was 6.27 µM and 7.12 µM and the IC50 ([5]; HTRF IC50 Akt1, Mean, mean of replicates) was 1.8 µM. For the same compound, the IC50 ([5]; HTRF IC50 Akt1, individual determinations, single replicates) was 1.82 µM and 2.04 µM and 2.47 µM and 0.858 µM, the IC50 ([5]; IC50 Akt1, HTRF, ATP at KM, 1 h preincubation) was 2.11 ± 0.268 µM and the “Log ratio IC50 [Akt] / IC50 [Akt], Akt1 / Akt2” value [5] was 1.30. For the same compound, the IC50 ([6]; HTRF IC50 Akt2, Mean, mean of replicates) was 0.0985 µM, the IC50 ([6]; HTRF IC50 Akt2, individual determinations, single replicates) was 0.0929 µM and 0.124 µM and 0.104 µM and the IC50 ([6]; IC50 Akt2, HTRF, ATP at KM, 1 h preincubation) was 0.099 ± 0.006 µM. The IC50 ([7]; HTRF IC50 Akt3, individual determinations, single replicates) was 0.233 µM and 0.416 µM and 0.225 µM and 0.214 µM, the IC50 ([7]; IC50 Akt3, HTRF, ATP at KM, 1 h preincubation) was 0.272 ± 0.084 µM and the Ki ([8]; Ki Akt2) was 0.021 ± 0.005 µM. The Ki ([8]; Ki Akt2, Mean, mean of replicates) was 0.0213 µM, the Ki ([8]; Ki Akt2, individual determinations, single replicates) was 0.0272 µM and 0.0156 µM and the kinact/KI ([8]; read-out: kinact /Ki Akt2) was 12000 ± 5000 M⁻¹ s⁻¹. The kinact ([8]; read-out: kinact Akt2) was 0.000233 s⁻¹, the kinact ([8]; read-out: kinact Akt2, individual determinations, single replicates) was 0.000267 s⁻¹ and the “kinact Akt2, individual determinations” value ([8]; single replicates) was 0.017 min⁻¹ and 0.009 min⁻¹. For the same compound, the Ki ([9]; Ki Akt3) was 0.064 ± 0.004 µM, the Ki ([9]; Ki Akt3, Mean, mean of replicates) was 0.0638 µM and the Ki ([9]; Ki Akt3, individual determinations, single replicates) was 0.0626 µM and 0.0693 µM and 0.0594 µM. It also gave a kinact/KI ([9]; read-out: kinact /Ki Akt3) of 8000 ± 1000 M⁻¹ s⁻¹, a kinact/KI ([9]; read-out: kinact /Ki Akt3, individual determinations, single replicates) of 7000 M⁻¹ s⁻¹ and a kinact ([9]; read-out: kinact Akt3) of 0.000517 s⁻¹. For the same compound, the kinact ([9]; read-out: kinact Akt3, Mean, mean of replicates) was 0.000517 s⁻¹, the kinact ([9]; read-out: kinact Akt3, individual determinations, single replicates) was 0.000433 s⁻¹ and the “kinact /Ki Akt3, individual determinations” value ([9]; single replicates) was 0.009. The “kinact Akt3, individual determinations” value ([9]; single replicates) was 0.037 min⁻¹ and 0.031 min⁻¹.
`C=CC(=O)Nc1ccc2[nH]c(=O)n(C3CCN(Cc4ccc(-c5nc(C)c(=O)[nH]c5-c5ccccc5)cc4)CC3)c2c1` [15a, reference compound] gave a viability at 3 days, 0.0001 µM ([10]; cell viability) of 107%, an EC50 ([1]; Mus musculus, BaF3, CTG, parental BaF3 cell line, read-out: EC50 BaF3) of over 30 µM and an EC50 [1, 13] of over 30 µM. For the same compound, the EC50 [1, 14] was over 30 µM, the EC50 [1, 15] was over 30 µM and the “pAkt and downstream targets (immunoblot)” value [11] was “more potent towards myr-Akt1 than myr-Akt2 and myr-Akt3”. The EC50 [2, 16] was 7.21 µM, the EC50 [2, 17] was 7.37 µM and the viability at 0.0001 µM ([2]; Mus musculus) was 107%. The viability at 5 µM ([2]; Mus musculus) was 72.2%, the “Log ratio EC50 [Akt] / EC50 [Akt], Akt1 / Akt2” value [2] was -0.31 and the EC50 [2, 18] was 7.33 µM and 7.9 µM and 6.25 µM. It also gave an EC50 [3, 19] of 14.9 µM, a viability at 0.0001 µM ([3]; Mus musculus, read-out: cell viability, CTG, myr-Akt2, 0.1 nM, single replicates) of 100% and a viability at 5 µM ([3]; Mus musculus, read-out: cell viability, CTG, myr-Akt2, 5000 nM, single replicates) of 96.1%. For the same compound, the EC50 [3, 20] was 13.5 µM and 21.4 µM and 14.1 µM and 10.4 µM, the EC50 [4, 21] was over 30 µM and the viability at 0.0001 µM ([4]; Mus musculus, read-out: cell viability, CTG, myr-Akt3, 0.1 nM, single replicates) was 105%. The viability at 5 µM ([4]; Mus musculus, read-out: cell viability, CTG, myr-Akt3, 5000 nM, single replicates) was 99.8%, the “Log ratio EC50 [Akt] / EC50 [Akt], Akt3 / Akt2” value [4] was -0.26 and the EC50 [4, 22] was > 30 µM (2×) and 17.8 µM. The “Log ratio IC50 [Akt] / IC50 [Akt], Akt1 / Akt2” value [5] was -2.52.
In the case of `C=CC(=O)Nc1ccc2[nH]c(=O)n(C3CCN(Cc4ccc(-c5[nH]c(=O)c(CC(C)C)nc5-c5ccccc5)cc4)CC3)c2c1` [16b, reference compound], the viability at 3 days, 5 µM ([10]; parental Ba/F3 cells, CTG, parental, 5000 nM, single replicates) is reported as 98%, the cell viability ([1]; 0.1 nM, single replicates, 0.0001 µM) is reported as 102.9 % of control and 116.0 % of control and 91.9 % of control and the cell viability ([1]; 5000 nM, single replicates, 5 µM) is reported as 99.0 % of control and 116.0 % of control. For the same compound, the EC50 [1, 13] was 20.1 µM, the EC50 [1, 14] was 21.6 µM and the EC50 [1, 15] was 15.9 µM and 22.9 µM. The “pAkt and downstream targets (immunoblot)” value [12] was “preferential binding”, the cell viability ([2]; myr-Akt1, 0.1 nM, single replicates, 0.0001 µM) was 105.6 % of control and the cell viability ([2]; myr-Akt1, 5000 nM, single replicates, 5 µM) was 102.7 % of control and 99.1 % of control. For the same compound, the EC50 [2, 17] was 29.7 µM, the viability at 0.0001 µM ([2]; Mus musculus) was 99% and the viability at 5 µM ([2]; Mus musculus) was 102%. For the same compound, the EC50 [2, 18] was 29.8 µM and > 30 µM, the cell viability ([4]; myr-Akt3, 0.1 nM, single replicates, 0.0001 µM) was 96.8 % of control and the cell viability ([4]; myr-Akt3, 5000 nM, single replicates, 5 µM) was 61.2 % of control. For the same compound, the EC50 [4, 22] was > 30 µM and 24.5 µM and 11.4 µM.
